Data reported in the supplement of paper PMC10307832.

What was measured:
Test in all cases: relative viability (nuclei count vs DMSO), 5 days (fraction); higher = more cells survive
[1] = compound: c1ccc2c(CCNc3ccc(Nc4ccncc4)cc3)c[nH]c2c1 [Serdemetan] + CC1(C)CCC(c2ccc(Cl)cc2)=C(CN2CCN(c3ccc(C(=O)NS(=O)(=O)c4ccc(N[C@H](CCN5CCOCC5)CSc5ccccc5)c(S(=O)(=O)C(F)(F)F)c4)cc3)CC2)C1 [Navitoclax] (partner 0.5 µM)
How it was run: (§1)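 For relative viability, nuclei counts in treated wells were divided by those in vehicle wells. Lung cancer cell lines had been pin-tool dosed in 1536-well plates the day after seeding and cultured for 5 days, then fixed and stained in one step (final 0.05% Triton X-100, 1% formaldehyde, 1 ug/ml Hoechst) and imaged at 4×. Doses were one drug alone or a fixed anchor-drug dose plus five library-drug doses (not always all listed) in √10 steps, and values are duplicate-plate medians.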

[2] = compound: C1CC(C2=C(C1)C3=C(N2)C=CC(=C3)Cl)C(=O)N [Selisistat] + C[C@@H](Oc1cc(-c2cnn(C3CCNCC3)c2)cnc1N)c1c(Cl)ccc(F)c1Cl [Crizotinib] (partner 1 µM)
How it was run: as §1

[3] = compound: c1ccc2c(CCNc3ccc(Nc4ccncc4)cc3)c[nH]c2c1 [Serdemetan] + Cc1nc(Nc2ncc(C(=O)Nc3c(C)cccc3Cl)s2)cc(N2CCN(CCO)CC2)n1 [Dasatinib] (partner 0.075 µM)
How it was run: as §1

[4] = compound: c1ccc2c(CCNc3ccc(Nc4ccncc4)cc3)c[nH]c2c1 [Serdemetan] + CCNC(=O)c1noc(-c2cc(C(C)C)c(O)cc2O)c1-c1ccc(CN2CCOCC2)cc1 [Luminespib] (partner 0.01 µM)
How it was run: as §1

| Cell Line | relative viability ([1]; first compound 0.04 µM) | relative viability ([1]; first compound 0.1265 µM) | relative viability ([1]; first compound 0.4 µM) | relative viability ([1]; first compound 1.265 µM) | relative viability ([1]; first compound 4 µM) | relative viability ([2]; first compound 0.4 µM) | relative viability ([2]; first compound 1.265 µM) | relative viability ([2]; first compound 4 µM) | relative viability ([2]; first compound 12.65 µM) | relative viability ([2]; first compound 40 µM) | relative viability ([3]; first compound 0.04 µM) | relative viability ([3]; first compound 0.1265 µM) | relative viability ([3]; first compound 0.4 µM) | relative viability ([3]; first compound 1.265 µM) | relative viability ([3]; first compound 4 µM) | relative viability ([4]; first compound 0.04 µM) | relative viability ([4]; first compound 0.1265 µM) | relative viability ([4]; first compound 1.265 µM) | relative viability ([4]; first compound 4 µM) | relative viability ([4]; first compound 0.4 µM) |
| --- | --- | --- | --- | --- | --- | --- | --- | --- | --- | --- | --- | --- | --- | --- | --- | --- | --- | --- | --- | --- |
| HCC-366 | 1.03 | 0.981 | 0.522 | 0.0806 | 0.0474 | 0.58 | 0.681 | 0.4 | 0.521 | 0.562 | 0.637 | 0.472 | 0.542 | 0.0442 | 0.155 |  |  |  |  |  |
| HCC-827 | 1.02 | 0.941 |  | 0.787 | 0.753 | 0.954 | 0.873 | 0.946 | 0.838 | 0.883 | 0.372 | 0.231 |  | 0.229 | 0.138 | 0.606 | 0.563 | 0.288 | 0.344 |  |
| HOP-62 | 1.08 | 0.942 | 1.05 | 0.944 | 0.962 | 0.682 | 0.957 | 1.09 | 0.801 | 0.988 | 0.561 | 0.625 | 0.636 | 0.538 | 0.567 | 0.758 | 0.915 | 0.666 | 0.596 | 0.848 |
| IA-LM | 0.822 | 0.648 | 0.692 | 0.341 | 0.239 | 0.646 | 0.759 | 1.2 |  | 0.869 |  |  |  |  |  |  |  |  |  |  |
| LC-2-ad | 0.5 | 0.418 | 0.427 |  | 0.293 | 0.468 |  | 0.42 | 0.433 | 0.433 | 0.495 | 0.634 | 0.519 | 0.501 | 0.475 | 0.951 | 0.944 | 0.898 | 0.899 | 0.969 |
| LCLC-97TM1 | 0.472 | 0.32 | 0.278 | 0.364 | 0.377 | 0.327 | 0.308 | 0.637 | 0.393 | 0.498 | 0.824 | 0.971 | 0.823 |  | 0.748 | 0.739 | 0.738 |  | 0.596 | 0.653 |
| LCLC-103H |  |  |  |  |  | 1.08 | 0.991 | 0.996 | 0.999 | 1.07 | 0.466 | 0.434 | 0.539 | 0.331 | 0.482 | 0.971 | 1.03 | 0.975 | 0.751 | 1 |
| LK-2 | 0.918 | 0.889 | 1.2 | 0.953 | 0.746 | 0.234 | 0.255 | 0.245 | 0.231 | 0.24 | 0.315 | 0.269 | 0.334 | 0.233 | 0.379 | 0.18 | 0.172 | 0.161 | 0.2 | 0.191 |
| LOU-NH91 | 0.696 | 0.74 |  | 0.534 | 0.581 | 0.766 | 0.664 | 0.683 | 0.729 | 0.738 | 0.564 | 0.554 | 0.371 | 0.43 | 0.565 | 0.282 | 0.334 | 0.296 | 0.299 | 0.347 |
| LU99A | 0.803 | 0.842 | 0.712 | 0.251 | 0.26 | 0.568 | 0.438 | 0.662 | 0.493 | 0.677 | 0.545 | 0.515 | 0.592 | 0.217 | 0.232 | 0.26 | 0.259 | 0.182 | 0.193 | 0.185 |
| NCI-H358 |  |  |  |  |  | 0.586 | 0.526 |  | 0.621 | 0.613 | 0.185 | 0.167 | 0.161 | 0.146 | 0.17 | 0.63 | 0.351 | 0.465 | 0.207 | 0.254 |
| NCI-H522 |  |  |  |  |  |  |  |  |  |  | 0.807 | 0.844 | 0.911 |  | 0.946 | 1.15 | 1.42 | 0.873 | 1.45 | 1.25 |
| NCI-H650 |  |  |  |  |  | 0.707 |  | 0.786 | 0.596 | 0.664 | 0.424 | 0.449 | 0.451 | 0.35 | 0.43 | 0.659 | 0.875 | 0.576 | 0.505 | 0.732 |
| NCI-H661 |  |  |  |  |  | 0.967 | 0.952 | 1.17 | 1.04 | 0.996 | 0.856 | 0.916 | 0.849 |  | 0.564 | 0.91 | 0.943 | 0.799 | 0.854 | 0.95 |
| NCI-H1299 | 1.02 | 1.03 | 1.02 | 0.942 | 0.835 | 0.944 | 1 | 0.946 | 0.944 | 1 |  |  |  |  |  |  |  |  |  |  |
| NCI-H1395 | 0.976 | 1.07 | 1.08 | 0.923 | 0.815 |  |  |  |  |  | 0.396 | 0.42 | 0.481 | 0.406 | 0.281 | 0.651 | 0.671 | 0.6 | 0.459 | 0.673 |
| NCI-H1563 |  |  |  |  |  | 0.804 | 0.737 | 0.835 | 0.803 | 0.776 | 0.496 | 0.466 | 0.452 | 0.457 | 0.461 | 0.499 | 0.481 | 0.458 | 0.436 | 0.555 |
| NCI-H1623 |  |  |  |  |  |  |  |  |  |  | 0.549 | 0.628 | 0.359 | 0.442 | 0.562 | 0.498 | 0.481 | 0.551 | 0.427 | 0.432 |
| NCI-H1703 | 1.05 | 1.24 | 1.17 | 0.958 | 0.951 | 0.578 | 0.556 | 0.626 | 0.559 | 0.904 |  |  |  |  |  |  |  |  |  |  |
| NCI-H1793 | 0.337 | 0.408 | 0.39 | 0.349 | 0.263 |  |  |  |  |  | 0.355 | 0.308 | 0.383 | 0.21 | 0.259 | 0.17 | 0.186 | 0.169 | 0.165 | 0.343 |
| NCI-H2342 |  |  |  |  |  |  |  |  |  |  | 0.309 | 0.302 | 0.291 | 0.28 | 0.301 | 0.738 | 0.722 | 0.508 | 0.506 | 0.704 |
| SW 900 |  |  |  |  |  |  |  |  |  |  | 0.502 | 0.471 | 0.484 | 0.385 | 0.345 | 0.185 | 0.168 | 0.164 | 0.176 | 0.196 |
